Series [1] in a line: Stability studies at 40° C./75% RH (open vial). Type of series: physicochemical. As to conditions: 1 week (7 days), checked by XRPD, Raman. Here is the method: The polymorphs identified were stored at 40° C./75% RH (open vial). Each sample was put in a glass vial un-capped. Analysis was carried out at 7 days by XRPD and Raman for any potential change in crystalline structure.

How the values of series [2] were obtained: The solubility of the starting compound was determined in 25 pharmaceutically acceptable solvents (class II and III) of differing polarity. The procedure was as follows:
Approximately 20 mg of material was weighed out into each glass vial.
The mixture was stirred at RT for 5-10 minutes. Visual checks were then made for solubility.
If no solubility was achieved then steps (ii) and (iii) were repeated until either the solubility was achieved or the 50 volume aliquots of that solvent were added.
Solubility was then approximated.
Solubility was finally checked at the elevated temperature (40° C.).

Series [3] can be described thus: Gravimetric Vapor Sorption (GVS). Type of series: physicochemical. As to conditions: for Overall moisture uptake: 0% to 90% RH (Form I: % w/w, whole studied RH range up to 90% RH); for Moisture uptake / gradual Wt increase: from 0% to 50% RH; for Hygroscopicity class by GVS: weight increase at 80% RH; for Largest Wt increase: from 70 to 90% RH. Here is the method: 1.7.6 Gravimetric Vapor Sorption (GVS)
Approximately 20 mg of sample was placed into a wire-mesh vapor sorption balance pan and loaded into an ‘IgaSorp’ vapor sorption balance (Hiden Analytical Instruments). The sample was then dried by maintaining a 0% humidity environment until no further weight change was recorded. Subsequently, the sample was subjected to a ramping profile from 0-90% RH at 10% RH increments, maintaining the sample at each step until equilibration had been attained (99.5% step completion). Upon reaching equilibration, the % RH within the apparatus was ramped to the next step and the equilibration procedure repeated. After completion of the sorption cycle, the sample was dried using the profile from 85-5% RH at 10% RH increments same procedure. At last, the sample was dried by maintaining a 0% humidity environment until no further weight change was recorded. The weight change during the sorption/desorption cycles were then monitored, allowing the hygroscopic nature of the sample to be determined.

Experimental findings from patent US10005803B2, “Crystalline forms of fosnetupitant” (Helsinn Healthcare SA, priority 2015, dated 2018) are described below.

Molecules are shown by their SMILES. Entries after “also recorded” stand apart in the source; their conditions may differ.

Regarding `Cc1ccccc1-c1cc(N2CC[N+](C)(COP(=O)(O)O)CC2)ncc1N(C)C(=O)C(C)(C)c1cc(C(F)(F)F)cc(C(F)(F)F)c1.Cl.[Cl-]` [Form I, 4-(5-(2-(3,5-bis(trifluoromethyl)phenyl)-N,2-dimethylpropanamido)-4-(o-tolyl)pyridin-2-yl)-1-methyl-1-((phosphonooxy)methyl)piperazin-1-ium], in series [1], the “Generated form (change in crystalline structure)” value was “changes in crystalline structures; also recorded: changed”. Further, the “Solubility (in words)” value in series [2] is recorded as “very poor solubility”. Besides, in series [3], the Overall moisture uptake result was “about 45%”, the “Moisture uptake / gradual Wt increase” value was “about 5%” and the “Hygroscopicity class by GVS” value is recorded as “very hygroscopic (>15%@80% RH)”. In addition, the “Form change detected by GVS” value in series [3] (sorption/desorption cycle 0-90% RH) is listed as “No form changes were detected”.
With `Cc1ccccc1-c1cc(N2CC[N+](C)(COP(=O)(O)O)CC2)ncc1N(C)C(=O)C(C)(C)c1cc(C(F)(F)F)cc(C(F)(F)F)c1.Cl.[Cl-]` [Form II, 4-(5-(2-(3,5-bis(trifluoromethyl)phenyl)-N,2-dimethylpropanamido)-4-(o-tolyl)pyridin-2-yl)-1-methyl-1-((phosphonooxy)methyl)piperazin-1-ium], in series [1], the “Generated form (change in crystalline structure)” value is “not and No change”. In series [3], the Overall moisture uptake result was “circa 12.75%”, the “Largest Wt increase” value is listed as “circa 8.63 % w/w” and the “Hygroscopicity class by GVS” value was “hygroscopic (15%>Wt increase>2%%@80% RH)”. In series [3] (@10% RH), the “Sharp Wt increase in absorption” value is “circa 2.92 % w/w”. For the same compound, in series [3] (at 60% RH), the “Loss of weight in the absorption process” value was approximately 0.2 % w/w. Also, the Moisture uptake result in series [3] (from 0 to 70% RH) is recorded as “circa 4.12%”. Besides, the “Gradual Wt increases, total” value in series [3] (from 20 to 70% RH) is reported as “circa 1.2 % w/w”.
In the case of `Cc1ccccc1-c1cc(N2CC[N+](C)(COP(=O)(O)O)CC2)ncc1N(C)C(=O)C(C)(C)c1cc(C(F)(F)F)cc(C(F)(F)F)c1.Cl.[Cl-]` [Form III, 4-(5-(2-(3,5-bis(trifluoromethyl)phenyl)-N,2-dimethylpropanamido)-4-(o-tolyl)pyridin-2-yl)-1-methyl-1-((phosphonooxy)methyl)piperazin-1-ium], the “Generated form (change in crystalline structure)” value in series [1] is “changes in crystalline structures; also recorded: changed”. In addition, in series [3], the Overall moisture uptake result is reported as “circa 25%”, the “Moisture uptake / gradual Wt increase” value is “circa 5.19%”, the “Largest Wt increase” value is recorded as “circa 8.63 % w/w” and the “Hygroscopicity class by GVS” value was “very hygroscopic (>15%@80% RH)”. Also, the “Loss of weight in absorption process” value in series [3] (at 80% RH) was approximately 5.82 % w/w.
